Experimental data: patent US20130096100A1, “DI(ARYLAMINO)ARYL COMPOUND” (ASTELLAS PHARMA INC., priority 2007, published 2013)

Legend:
[1] = test system: human non-small cell lung cancer cell line NCI-H2228 cells (EML4-ALK fusion protein-expressing cells); assay: Inhibitory effect against anchorage-independent cell growth of NCI-H2228 cells (Test Example 3); format: cell-based; settings: 120 h, spheroid plate, 5 days, CellTiter-Glo
Excerpt: Measurement for anchorage-independent cell growth (colony method, etc) has been known to be a system for investigating the anticancer action (pharmacological effect) of test compounds (Clinical Oncology, second edition, Cancer and Chemotherapy Publishers Inc.). In place of the colony method, there is a following method using spheroid plates for measuring the growth of non-attached cells.
(§1) In a 96-well spheroid plate (Sumilon Celltight Spheroid 96U; Sumitomo Bakelite Co., Ltd., Japan), human non-small cell lung cancer cell line NCI-H2228 cells were seeded at 2000 cells per well in RPMI1640 medium (Invitrogen) containing 10% fetal bovine serum. NCI-H2228 cells are those expressing another EML4-ALK fusion protein, which is different from the EML4-ALK fusion protein v1 because it is encoded by an EML4-ALK fusion polynucleotide whose fusion point on EML4 cDNA is different from that of the EML4-ALK fusion polynucleotide v1, but whose ALK region is the same as that of the EML4-ALK fusion polynucleotide v1. The above NCI-H2228 cells seeded in the plate were cultured overnight under 5% CO2 at 37° C., followed by addition of a test compound (final concentration: 10 μM to 1 nM). As a negative control, DMSO used as a solvent was added at the same concentration as the test compound. Then, the cells were cultured under 5% CO2 at 37° C. for 5 days. A cell counting reagent (CellTiter-Glo™ Luminescent Cell Viability Assay; Promega) was added and agitated for 20 minutes, followed by measurement with a luminometer (ML3000 microtiter plate luminometer; Dynatech Laboratories).

[2] = test system: 88 types of kinases; assay: Kinase inhibition profiling, 88 types of kinases (Test Example 6); format: biochemical; settings: concentration of 100 nM
[3] = molecular target: T1, MER (Homo sapiens, UniProt Q12866); assay: Kinase inhibition profiling, MER (Test Example 6); format: biochemical; settings: 100 nM; read-out: inhibitory activity against MER
T1 construct: purchased Carna Biosciences Inc., Japan (contract measurement)
T1 sequence (Q12866 21-999): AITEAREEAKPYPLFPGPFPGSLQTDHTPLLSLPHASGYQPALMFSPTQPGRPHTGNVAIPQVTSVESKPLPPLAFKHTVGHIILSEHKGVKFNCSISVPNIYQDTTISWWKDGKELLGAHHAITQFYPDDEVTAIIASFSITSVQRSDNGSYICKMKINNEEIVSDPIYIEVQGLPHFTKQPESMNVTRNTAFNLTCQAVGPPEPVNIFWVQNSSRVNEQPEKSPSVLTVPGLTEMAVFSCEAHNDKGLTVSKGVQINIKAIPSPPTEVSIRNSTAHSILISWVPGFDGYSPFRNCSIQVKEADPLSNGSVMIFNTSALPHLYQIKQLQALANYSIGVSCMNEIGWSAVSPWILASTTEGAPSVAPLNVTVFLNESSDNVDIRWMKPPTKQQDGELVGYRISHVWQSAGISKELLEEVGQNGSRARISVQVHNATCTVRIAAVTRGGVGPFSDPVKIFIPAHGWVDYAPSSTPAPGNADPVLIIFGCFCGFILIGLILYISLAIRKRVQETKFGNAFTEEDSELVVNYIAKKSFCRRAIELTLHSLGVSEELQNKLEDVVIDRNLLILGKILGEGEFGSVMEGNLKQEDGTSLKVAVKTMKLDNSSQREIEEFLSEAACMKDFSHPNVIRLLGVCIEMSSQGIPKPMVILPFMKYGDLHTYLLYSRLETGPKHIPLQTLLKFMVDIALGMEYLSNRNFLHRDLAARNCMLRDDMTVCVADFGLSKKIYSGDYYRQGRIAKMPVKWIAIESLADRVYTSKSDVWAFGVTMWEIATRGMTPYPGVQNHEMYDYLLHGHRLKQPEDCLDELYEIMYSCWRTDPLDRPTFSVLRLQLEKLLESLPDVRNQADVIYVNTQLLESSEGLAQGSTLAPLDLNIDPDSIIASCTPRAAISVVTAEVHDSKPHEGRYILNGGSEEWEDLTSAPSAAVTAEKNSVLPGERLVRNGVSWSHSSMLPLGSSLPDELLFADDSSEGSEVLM

[4] = molecular target: T2, MNK1 (Homo sapiens, UniProt Q9BUB5); assay: Kinase inhibition profiling, MNK1 (Test Example 6); format: biochemical; settings: 100 nM; read-out: inhibitory activity against MNK1
T2 construct: purchased Carna Biosciences Inc., Japan (contract measurement)
T2 sequence (Q9BUB5 whole entry): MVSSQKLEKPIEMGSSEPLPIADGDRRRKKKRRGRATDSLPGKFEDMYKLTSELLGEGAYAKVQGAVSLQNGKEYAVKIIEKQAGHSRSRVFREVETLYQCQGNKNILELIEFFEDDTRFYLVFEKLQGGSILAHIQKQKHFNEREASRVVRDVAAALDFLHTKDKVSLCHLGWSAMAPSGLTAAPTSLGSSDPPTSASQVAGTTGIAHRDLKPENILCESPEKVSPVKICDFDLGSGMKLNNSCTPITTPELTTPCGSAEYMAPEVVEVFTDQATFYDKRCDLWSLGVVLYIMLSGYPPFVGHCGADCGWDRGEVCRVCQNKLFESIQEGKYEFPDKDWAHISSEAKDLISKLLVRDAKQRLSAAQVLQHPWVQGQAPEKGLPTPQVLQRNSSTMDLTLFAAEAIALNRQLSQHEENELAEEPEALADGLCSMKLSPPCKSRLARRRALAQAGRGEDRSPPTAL

[5] = molecular target: T3, MUSK (Homo sapiens, UniProt O15146); assay: Kinase inhibition profiling, MUSK (Test Example 6); format: biochemical; design: purchased Carna Biosciences Inc., Japan (contract measurement); settings: 100 nM; read-out: inhibitory activity against MUSK
T3 sequence (O15146 24-869): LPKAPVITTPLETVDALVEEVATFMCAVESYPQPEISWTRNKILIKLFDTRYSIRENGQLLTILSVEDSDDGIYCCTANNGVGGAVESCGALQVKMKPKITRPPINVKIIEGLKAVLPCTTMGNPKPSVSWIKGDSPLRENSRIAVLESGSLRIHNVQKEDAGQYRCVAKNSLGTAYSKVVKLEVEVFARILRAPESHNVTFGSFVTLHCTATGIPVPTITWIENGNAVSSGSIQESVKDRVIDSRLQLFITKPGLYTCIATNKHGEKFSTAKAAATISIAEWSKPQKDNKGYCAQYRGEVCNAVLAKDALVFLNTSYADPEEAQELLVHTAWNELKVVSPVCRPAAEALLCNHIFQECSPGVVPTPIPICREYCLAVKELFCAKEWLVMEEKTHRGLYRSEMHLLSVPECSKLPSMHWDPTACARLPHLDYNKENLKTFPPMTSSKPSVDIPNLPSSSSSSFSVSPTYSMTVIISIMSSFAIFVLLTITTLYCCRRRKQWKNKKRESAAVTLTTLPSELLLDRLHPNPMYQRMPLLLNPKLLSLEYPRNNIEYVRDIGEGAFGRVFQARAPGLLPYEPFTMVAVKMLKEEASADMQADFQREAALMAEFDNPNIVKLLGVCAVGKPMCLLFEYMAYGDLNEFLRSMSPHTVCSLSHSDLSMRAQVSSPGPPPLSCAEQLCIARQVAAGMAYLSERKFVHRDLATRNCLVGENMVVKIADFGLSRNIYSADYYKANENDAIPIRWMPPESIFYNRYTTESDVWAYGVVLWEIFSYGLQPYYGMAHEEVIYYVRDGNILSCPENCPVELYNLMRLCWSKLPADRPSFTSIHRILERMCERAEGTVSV

[6] = test system: HCC-827 cells (mutant EGFR protein-expressing cells); settings: conditions of Non-patent Document 6; cited from earlier work
[7] = test system: human non-small cell lung cancer cell line HCC827 cells (mutant EGFR protein-expressing cells); assay: Inhibitory effect against anchorage-independent cell growth of HCC827 cells (Test Example 4); format: cell-based; settings: 120 h, spheroid plate, 5 days, CellTiter-Glo
Experimental: as §1
Evaluation of Inhibitory Effect Against Anchorage-Independent Cell Growth of Human Non-Small Cell Lung Cancer Cell Line HCC827 Cells (Mutant EGFR (with Partial Deletion of Exon 19 in EGFR) Protein-Expressing Cells, American Type Culture Collection)
Evaluation was performed in the same manner as shown in Test Example 3.

[8] = Toxicity test in rats, 7-day repeated oral administration (Test Example 5); format: in vivo, SD rats; settings: 7 days; for Dose: Bone marrow inhibition / Dose: Exacerbation of common symptoms / Non-toxic dose: oral; for Dose: Moribund condition: SD, rat, in vivo, po
Excerpt: Test compounds were each suspended in a 0.5% aqueous methylcellulose solution and repeatedly administered to SD rats (two females and four males in each group) by the oral route at each dose for 7 days.

[9] = molecular target: T4, EML4-ALK fusion protein v1 (Homo sapiens, UniProt Q9UM73, D1529E/I1461V/K1491R); assay: Inhibitory activity against the kinase activity of EML4-ALK fusion protein v1 (Test Example 1); format: biochemical; settings: ATP 100 μM, reaction 1 hour, HTRF KinEASE-TK
T4 construct: FLAG (N); made in house
T4 sequence (Q9UM73 with tags, fused parts or gaps I1461V/K1491R/D1529E): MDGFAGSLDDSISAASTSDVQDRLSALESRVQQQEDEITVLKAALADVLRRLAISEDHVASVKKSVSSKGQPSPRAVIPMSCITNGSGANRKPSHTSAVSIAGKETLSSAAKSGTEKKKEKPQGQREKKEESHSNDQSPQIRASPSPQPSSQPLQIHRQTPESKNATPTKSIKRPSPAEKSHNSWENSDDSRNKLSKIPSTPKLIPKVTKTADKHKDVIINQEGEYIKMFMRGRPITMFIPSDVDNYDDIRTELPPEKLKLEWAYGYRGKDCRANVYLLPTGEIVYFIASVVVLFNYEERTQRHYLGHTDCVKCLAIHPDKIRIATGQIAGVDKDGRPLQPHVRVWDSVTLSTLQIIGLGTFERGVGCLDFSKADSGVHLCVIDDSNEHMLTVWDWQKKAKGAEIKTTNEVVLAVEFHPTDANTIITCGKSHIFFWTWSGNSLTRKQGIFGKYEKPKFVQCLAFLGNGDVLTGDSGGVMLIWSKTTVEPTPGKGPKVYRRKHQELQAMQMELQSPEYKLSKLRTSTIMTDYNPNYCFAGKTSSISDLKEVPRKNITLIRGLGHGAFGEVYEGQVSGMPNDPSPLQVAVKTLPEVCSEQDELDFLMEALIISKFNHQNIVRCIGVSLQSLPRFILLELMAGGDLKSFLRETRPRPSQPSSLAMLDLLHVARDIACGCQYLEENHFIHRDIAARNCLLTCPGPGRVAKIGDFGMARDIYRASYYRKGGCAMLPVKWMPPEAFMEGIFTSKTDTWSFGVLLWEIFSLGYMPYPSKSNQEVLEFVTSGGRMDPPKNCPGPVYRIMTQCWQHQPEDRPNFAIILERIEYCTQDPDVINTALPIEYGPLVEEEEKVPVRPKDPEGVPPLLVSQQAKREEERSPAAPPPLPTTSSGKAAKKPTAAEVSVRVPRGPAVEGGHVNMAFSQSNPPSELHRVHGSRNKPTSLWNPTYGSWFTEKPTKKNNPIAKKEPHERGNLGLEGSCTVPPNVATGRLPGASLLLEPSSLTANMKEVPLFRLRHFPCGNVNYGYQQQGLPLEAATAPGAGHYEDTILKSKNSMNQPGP
Experimental: EML4-ALK fusion protein v1 (purified from BA/F3 cells expressing EML4-ALK fusion protein v1) was investigated for its phosphorylation activity toward a peptide substrate by using a kinase activity detection kit (HTRF KinEASE-TK; Cisbio Inc.). […] The ATP concentration used was 100 μM. Another reaction solution was prepared to contain the enzyme protein but no test compound (in which the solvent DMSO alone was added at 0.4% in place of the test compound), followed by reaction in the same manner with or without ATP addition. […] The concentration causing 50% inhibition (IC50) was calculated for each test compound by the logistic regression method.
N-terminally FLAG-tagged EML4-ALK fusion protein v1 was inserted into a vector pMX-iresCD8 capable of co-expression of insert cDNA and cell surface antigen CD8 (J. Biol. Chem., 2001, vol. 276, p. 39012-39020) to create a vector FLAG-EML4-ALKv1/pMX-iresCD8 expressing both FLAG-EML4-ALKv1 and CD8. FLAG-EML4-ALKv1/pMX-iresCD8 was used to create a recombinant retrovirus in the same manner as described above and infected into mouse lymphoid cell line BA/F3 cells. Using a magnetic bead reagent for cell separation and a purification column (anti-CD8 monoclonal antibody immobilized on magnetic beads and a MiniMACS purification column; both are products of Miltenyi Biotec Inc.), cell surface CD8-expressing cells were purified conveniently. […] After washing 3 times with PBS, the cells were lysed in a lysis solution (50 mM Tris.HCl (pH 7.4), 150 mM NaCl, 1% Triton X100, 5 mM EDTA, 5 mM EGTA, 1 mM NaVO4, 1 mM DTT and protease inhibitor cocktail complete). The EML4-ALK fusion protein v1 present in the supernatant obtained after centrifugation was purified using ANTI-FLAG M2 Affinity Gel (SIGMA-ALDRICH Inc.) according to the method described in the product information document.
The EML4-ALK fusion protein v1 purified as above was investigated for its phosphorylation activity toward a peptide substrate using a kinase activity detection kit (HTRF KinEASE-TK; Cisbio Inc.). Using TK substrate 1, which was included in the kit, as the substrate, and after adding no ATP or 100 μM ATP, the mixtures were reacted at room temperature for 1 hour, and the count of HTRF was detected as recommended by the Kits manufacturer.

[10] = molecular target: T4, EML4-ALK fusion protein v1; assay: Inhibitory effect of compounds against the in vitro kinase activity of EML4-ALK fusion protein v1, IC50 (Test Example 14); format: biochemical; settings: 8 concentrations 1000 nM to 0.3 nM
Experimental: In the same manner as shown in Test Example 12(3), compounds were investigated for their inhibitory effect against the in vitro kinase activity of EML4-ALK fusion protein v1 using the kinase activity detection kit mentioned above. Test compounds were each added to a reaction solution containing the EML4-ALK fusion protein v1 to give 8 final concentrations from 1000 nM to 0.3 nM, followed by addition of ATP. Another reaction solution was prepared to contain the EML4-ALK fusion protein v1 but no test compound (in which the solvent DMSO alone was added at 0.4% in place of the test compound), followed by reaction with or without ATP addition. The rest of the operations were carried out as described in Test Example 12(2). […] The concentration causing 50% inhibition (IC50) was calculated for each test compound by the logistic regression method.

| Structure (SMILES) | IC50 [1] | number of types of kinases (of 88) with 50% or more inhibitory activity [2] | inhibition at 0.1 µM [3] | inhibition at 0.1 µM [4] | inhibition at 0.1 µM [5] | growth inhibitory activity, inhibition rate [6] | IC50 [7] | Dose: Bone marrow inhibition ([8]; female SD rats (2 rats)) | Dose: Exacerbation of common symptoms ([8]; female SD rats (2 rats)) | Non-toxic dose ([8]; female SD rats (2 rats)) | Dose: Moribund condition ([8]; female) | Dose: Bone marrow inhibition ([8]; male SD rats (4 rats)) | Dose: Exacerbation of common symptoms ([8]; male SD rats (4 rats)) | Non-toxic dose ([8]; male SD rats (4 rats)) | Dose: Moribund condition ([8]; male) | IC50 [9] | IC50 [10] |
| --- | --- | --- | --- | --- | --- | --- | --- | --- | --- | --- | --- | --- | --- | --- | --- | --- | --- |
| COc1cc(N2CCC(N3CCN(C)CC3)CC2)ccc1Nc1ncc(Cl)c(Nc2ccccc2S(=O)(=O)C(C)C)n1 [TAE684, 5-chloro-N^4-[2-(isopropylsulfonyl)phenyl]-N^2-{2-methoxy-4-[4-(4-methylpiperazin-1-yl)piperidin-1-yl]phenyl}pyrimidine-2,4-diamine, reference compound] | 8.5 nM | 29 types of kinases | ≥ 90% | 4.8% | ≥ 90% | 7.5% | 301 nM | 10 mg/kg | 30 mg/kg | 3 mg/kg | 100 mg/kg | 10 mg/kg | 100 mg/kg | 3 mg/kg | (>100) mg/kg | – | – |
| COc1cc(N2CCC(N3CCN(C)CC3)CC2)ccc1Nc1nc(Nc2ccccc2S(=O)(=O)C(C)C)c2ccccc2n1 [Example 1, N^4-[2-(isopropylsulfonyl)phenyl]-N^2-{2-methoxy-4-[4-(4-methylpiperazin-1-yl)piperidin-1-yl]phenyl}quinazoline-2,4-diamine] | 473 nM | – | – | – | – | – | 2510 nM | – | – | – | – | – | – | – | – | 42 nM | 42 nM |
